{
  "source": "patent US7723289B2",
  "about": "“PIF tetrapeptides” (BioIncept, LLC, priority 2003, dated 2010)",
  "key": {"PBMC": {"test_system": "PBMC", "assay": "FITC-labeled PIF binding to PBMC subpopulations (flow cytometry)", "design": "species or system human", "conditions": "PBMC within 24 hrs of PHA activation", "procedure": "Expression of PIF-1(15) (SEQ ID NO:1), receptor following PHA induced PBMC proliferation CD-4 T cells; CD-8 T cells; NK cell and B cells (unstimulated-top); (PHA stimulated-bottom). Flow cytometry analysis of PBMC following exposure to FITC sPIF-1(15) (SEQ ID NO:13) % expression was determined in PBMC subtypes before and after exposure to 1 ug/ml PHA for 24 hours.\nHuman PBMC were isolated by the Ficoll method. FITC-labeled nPIF-115 (SEQ ID NO: 1) and (FITC)-labeled scrPIF-1 (SEQ ID NO:5) and match-size irrelevant peptide (FITC)-labeled negative controls negPIF-1(15) (SEQ ID NO:11), were dissolved in PBS at concentrations ranging from 0.75 to 48.19 μM, and were incubated with 500,000 lymphocytes for 1 h at room temperature. The cells were washed 6 times with PBS and resuspended in 500 μl of the same buffer. T-cells and monocytes identification was performed in independent experiments by incubation with anti-CD3 and anti-CD14 antibody-phycoerithryn (PE) labeled. nPIF-115 (SEQ ID NO: 1) binding to PBMC was determined by flow cytometry. In addition, rosettes formed by T cell-platelets were detected by flow cytometry using anti-CD3 antibody-PE and anti-CD41a antibody-FITC (all antibodies were from Pharmingen Inc.).\nUsing flow cytometry fluoroscein-labeled sPIF-115 (SEQ ID NO: 13) binding to immune cells was examined on resting PBMC."}, "mouse splenocytes": {"test_system": "mouse splenocytes", "assay": "FITC peptide binding to mouse splenocytes with 100 fold excess unlabeled peptide", "design": "species or system C57Bl/6 mice", "conditions": "300 nM FITC peptide, 100 fold excess unlabeled PIF", "method": "Virgin female C57Bl/6 mice were sacrificed and spleen cells were isolated and placed in AIM V culture media with 300 nM FITC PIF-1 (15)+/−100 fold excess unlabeled PIF. Following incubation cells were placed in a flow cytometry and the percentage of cells stained examined.\nSplenocytes from virgin female C57BL/6 mice were stained with 300 nM of PIF-1-FITC or scrPIF-1-FITC. Filled histograms indicated PIF-1-FITC or scrPIF-1-FITC alone. Empty histograms represent PIF-1-FITC or scrPIF-1-FITC staining in the presence of 100-fold excess of corresponding unlabeled peptide. Histograms represent both monocytes and lymphocytes according to scatter gating.\nCells were evaluated using flow cytometry determining labeled cells population Filled histograms indicate PIF-FITC or scrPIF-FITC alone. […] Empty histograms represent PIF-FITC or scrPIF-FITC staining in the presence of 100-fold excess of corresponding unlabeled peptide. Histograms represent both monocytes and lymphocytes according to scatter gating."}, "[1]": {"assay": "Whole body distribution of FITC labeled PIF-1 after IV and IP injection", "format": "in vivo, rats", "procedure": "In a further experiment, PIF presence in the spleen was confirmed in vivo, In addition, PIF presence in the cecum, bone marrow and uterus was determined. Adult female rats were injected FITC labeled PIF-1 500 nM in 100 ul volume IV and IP (Eric Solon QPS Inc). 5 and 30 minutes later rats were sacrificed and snap frozen in hexane embedded in frozen media. Whole body 40 um cryo sectioned were obtained and scaaned with a 9140 Typhoon bioimage scanner at a FITC excitation length."}},
  "data": [
    {"substance": "FITC sPIF-1(15): sPIF-1(15) labeled on N-terminus with fluorescein isothyocyanate via b-alanine spacer", "values": [
      {"measurement": "B cells positive for fluorescent PIF binding", "setting": "PBMC", "value": "> 90", "unit": "%"},
      {"measurement": "T lymphocytes positive for fluorescent PIF binding", "setting": "PBMC", "value": "60-80%"},
      {"measurement": "dissociation of FITC PIF from the PIF receptor by unlabeled peptide", "setting": "mouse splenocytes", "value": "> 90", "unit": "%"},
      {"measurement": "IP pick up", "setting": "[1]; 500 nM in 100 ul IP, 5 and 30 minutes", "value": "slower with major collection in the cecum"},
      {"measurement": "organs with specific pick up", "setting": "[1]; 500 nM in 100 ul IV, 5 and 30 minutes", "value": "spleen, bone marrow and uterus"},
      {"measurement": "elimination", "setting": "[1]; IV injected, FIG. 19", "value": "rapid elimination by the kidney"}
    ]}
  ]
}
